Test results: patent publication US8846012B2, “Melanin production inhibitor” (Pola Chemical Industries Inc., priority 2008, dated 2014)
≈ marks a conversion by molar mass, not a printed value. Read-outs that look alike come from different tables or passages of the source.

Assays:
[1] = test system: Trichopyton mentagrophytes (ATCC18748); assay: Measurement of antimycotic activity (Alamar Blue growth inhibition of dermatophytes); type: cell-based; settings: for growth inhibitory effect on Trichopyton mentagrophytes (in words): added at a concentration of 100 μg/mL; for MIC80: read-out: MIC80 Concentration; for inhibition at 0.1563 µg/mL / inhibition at 0.3125 µg/mL / inhibition at 0.625 µg/mL / inhibition at 1.25 µg/mL / inhibition at 2.5 µg/mL / inhibition at 5 µg/mL / inhibition at 10 µg/mL / inhibition at 100 µg/mL: read-out: Growth inhibition rate
Experimental: 10.4 g of RPMI1640 (manufactured by SAFC Biosciences) were dissolved in 900 mL of distilled water, and 34.53 g of a 0.165 M MOPS buffer (manufactured by DOJINDO LABORATORIES) were added and dissolved by stirring.
Dermatophytes (Trichopyton mentagrophytes (ATCC18748)) were inoculated into a 1/10 Sabouraud Dextrose agar medium (manufactured by DIFCO) and cultured at 28° C. for 14 days, and then a conidial suspension was prepared using 0.1% Tween80-including physiological saline. The suspension was filtered through gauze, and the number of the conidia was counted using a hemocytometer and then adjusted to 2.5×10^5/mL with the RPMI1640 medium. The resultant suspension was used as an inoculum.
Compound 5 and clotrimazole were diluted with the RPMI1640 medium to prepare 0.3125, 0.625, 1.25, 2.5, 5, 10, 20, and 200 μg/mL diluted solutions. The diluted solutions having different concentrations were dispensed into a 96-well flat-bottom microplate in an amount of 100 μL per well, and 80 μL of the inoculum and 20 μL of an Alamar Blue solution (manufactured by Nalgene) were further added thereto. Further, 80 μL of the inoculum and 20 μL of the Alamar Blue solution were added to 100 μL of the RPMI1640 medium in growth control wells, and 20 μL of the Alamar Blue solution was added to 180 μL of the RPMI1640 medium in negative control wells. The microplate was placed in a chamber in which the humidity was kept constant, and culture was started at 27° C., and the cells were observed every 24 hours. 120 hours from beginning of culture, i.e., when the growth control became obviously red (reduced form), absorbance measurement at 570 nm was performed using a microplate reader (SPECTRAMAX 250, manufactured by Molecular Device).
The test compounds were tested at the respective concentrations in triplicate. The growth inhibition rate (%) of each of the test compound-added groups was determined by the following equation based on a value calculated by subtracting an average absorbance value of the negative control from an average absorbance value of the growth control and the test compound-added wells. Further, […] (minimum inhibitory concentration; the minimum concentration at which the growth inhibition rate is 80% or more) was calculated from the growth inhibition rate of each test compound. Growth inhibition rate (%)=[1−(average absorbance value in test compound-added wells-average absorbance value of negative control)/(average absorbance value of growth control-average absorbance value of negative control)]×100
Compound 1, Compounds 3 to 6, Compound 40, Compound 41, triphenylmethylamine, triphenylmethanol, triphenylmethane, aminodiphenylmethane, and clotrimazole were diluted with the RPMI1640 medium to prepare 0.3125, 0.625, 1.25, 2.5, 5, 10, 20, and 200 μg/mL diluted solutions. The diluted solutions having different concentrations were dispensed into a 96-well flat-bottom microplate in an amount of 100 μl, per well, and 80 μL of the inoculum and 20 μl, of an Alamar Blue solution (manufactured by Nalgene) were further added thereto. Further, 80 μl, of the inoculum and 20 μl, of the Alamar Blue solution were added to 100 μL of the RPMI1640 medium in growth control wells, and 20 μL of the Alamar Blue solution was added to 180 μL of the RPMI1640 medium in negative control wells. The microplate was placed in a chamber in which the humidity was kept constant, and then culture was started at 27° C., and the cells were observed every 24 hours. 120 hours from beginning of culture, i.e., when the growth control became obviously red (reduced form), absorbance measurement at 570 nm was performed using a microplate reader (SPECTRAMAX 250, manufactured by Molecular Device).
The test compounds were tested at the respective concentrations in triplicate. […]

normal human melanocytes = assay: Melanin production inhibition test using cultured normal human melanocytes (14C-thiouracil incorporation); type: cell-based; settings: for activity at 2 µM: addition amount 2.0 μM; for activity at 20 µM: treatment concentration 20 μM; for activity at 15 µM: treatment concentration 15 μM
Experimental: The inhibitory effect on melanin production of the melanin production inhibitor of the present invention can be measured using thiouracil which is incorporated specifically into cells in a melanin synthesis process in the cells. For example, the amount of melanin production can be measured by measuring an amount of thiouracil incorporated into cells by measuring an amount of radiation with radiolabeled thiouracil.
The inhibitory effect on melanin production of Compound 1 was evaluated using 2-thiouracil (^14C-labeled 2-thiouracil was used in this test) which is incorporated specifically into melanin in an intracellular melanin synthesis process. Complete medium for culture of melanocytes (manufactured by Kurabo Industries Ltd.) was added to 15 wells in a 24-well plate in an amount of 2 mL per well, and normal human melanocytes (manufactured by Kurabo Industries Ltd.) were seeded into the wells at a concentration of 1.5×10^4 cells/cm^2. The cells were cultured in a 5% carbon dioxide atmosphere at 37° C. for 24 hours. Thereafter, the medium in all the wells was exchanged under the following conditions: fresh complete medium for culture of melanocytes (control) was used in three wells; each of complete medium for culture of melanocytes, which including Compound 1 at concentrations of 1.0 μM, 2.0 μM, and 4.0 μM, was used in a total of nine wells including three wells for each concentration; and complete medium for culture of melanocytes, each of which including arbutin (positive control) known as a melanin production inhibitor at a concentration of 0.5 mM (500 μM), was used in the other three wells. Further, 2-[2-^14C]thiouracil (^14C-labeled thiouracil) was added to each of these 15 wells at 0.25×10^−6 Ci (curie). Then, the cells were cultured for further 3 days under the same conditions as the above. After the completion of culture, the culture medium was removed from the wells, and the cells were washed with phosphate buffered physiological saline (PBS) and then separated from the bottoms of the wells with medium including trypsin and EDTA to prepare cell suspensions, followed by centrifugation to collect the cells. The number of the cells was counted using a hemocytometer. Thereafter, the amounts of ^14C-thiouracil in the cells collected from each well (0.25×10^−6 Ci) were measured using a liquid scintillation counter (ALOKA CO., LTD.). The percentages of an amount of radioactivity in the cells cultured in the medium including the test substances with respect to an amount of radioactivity in the cells collected from the well of the control were calculated as amounts of melanin (%). That is, as the amount of radioactivity incorporated into the cells is smaller, the amount of melanin is evaluated to be smaller, i.e., the melanin inhibition effect of the component added is evaluated to be larger.
Inhibitory effects on melanin production of Compounds 2 to 39 (however, the effects of Compound 9 and 15 were not measured) were examined in the same procedure as in Test Example 1.
These were examined in the same procedure as in Test Example 1.
Further, the results of melanin production inhibition by treatment with the respective test compounds, determined in the same procedure as in Test Example 1, are also shown in the table.

[2] = minimum concentration at which the growth inhibition rate is 80% or more
[3] = Homo sapiens, Melanocyte, Table 7, treatment concentration 4 μM, read-out: Amount of melanin
[4] = Homo sapiens, Melanocyte, Table 7, read-out: Amount of melanin

NC(c1ccccc1)c1ccccc1 [Aminodiphenylmethane]
growth inhibitory effect on Trichopyton mentagrophytes (in words) [1]: no growth inhibitory effect
MIC80 [1, 2]: > 100 µg/mL
activity at 40 µM (normal human melanocytes; Homo sapiens, Melanocyte, Table 3, addition amount 40 μM, control = 100%): 36.6 ± 12.8%
activity at 50 µM (normal human melanocytes; Homo sapiens, Melanocyte, Table 7, treatment concentration 50 μM, read-out: Amount of melanin): 28.8 ± 2.03%

Clc1ccccc1C(c1ccccc1)(c1ccccc1)n1ccnc1 [Clotrimazole, clotrimazole, reference compound]
inhibition at 0.1563 µg/mL ([1]; concentration 0.1563 μg/mL, 120 hours): 27%
inhibition at 0.3125 µg/mL ([1]; concentration 0.3125 μg/mL, 120 hours): 53%
inhibition at 0.625 µg/mL ([1]; concentration 0.6250 μg/mL, 120 hours): 82.5%
inhibition at 1.25 µg/mL ([1]; concentration 1.2500 μg/mL, 120 hours): 92.2%
inhibition at 2.5 µg/mL ([1]; concentration 2.5000 μg/mL, 120 hours): 93.4%
inhibition at 5 µg/mL ([1]; concentration 5.0000 μg/mL, 120 hours): 85.4%
inhibition at 10 µg/mL ([1]; concentration 10.0000 μg/mL, 120 hours): 92.2%
inhibition at 100 µg/mL ([1]; concentration 100.0000 μg/mL, 120 hours): 88.9%
MIC80 [1, 2]: 0.625 µg/mL (≈ 1.81 µM)
activity at 2.5 µM (normal human melanocytes; Homo sapiens, Melanocyte, Table 7, treatment concentration 2.5 μM, read-out: Amount of melanin): 23.2%
Amount of melanin (normal human melanocytes; Table 7, treatment concentration 2.5 μM): 23.2 ± 2.03 %/control

c1ccc(C(c2ccccc2)(c2ccccc2)n2ccnc2)cc1 [Compound 1, 1-(triphenylmethyl)imidazole]
MIC80 [1, 2]: 0.625 µg/mL (≈ 2.01 µM)
inhibitory effect of melanin production relative to that of arbutin (normal human melanocytes; 1.0 μM Compound 1 compared with 0.5 mM arbutin): ≥ 100 times
activity at 1 µM (normal human melanocytes; Homo sapiens, Melanocyte, addition amount 1.0 μM, control = 100%, mean ± SD of three samples): 63.8 ± 3.6%
activity at 2 µM (normal human melanocytes; Homo sapiens, Melanocyte, control = 100%, mean ± SD of three samples): 37 ± 5.3%
activity at 4 µM (normal human melanocytes; Homo sapiens, Melanocyte, addition amount 4.0 μM, control = 100%, mean ± SD of three samples): 29.2 ± 2.9%
activity at 4 µM (normal human melanocytes; [3]): 29.5 ± 2.5%

c1ccc(C(c2ccccc2)(c2ccccc2)N2CCCCC2)cc1 [Compound 5, 1-(triphenylmethyl)piperidine]
inhibition at 0.1563 µg/mL ([1]; 120 h): -4.5%
inhibition at 0.3125 µg/mL ([1]; 120 h): 8%
inhibition at 0.625 µg/mL ([1]; 120 h): -2.7%
inhibition at 1.25 µg/mL ([1]; 120 h): 3.1%
inhibition at 2.5 µg/mL ([1]; 120 h): -4.5%
inhibition at 5 µg/mL ([1]; 120 h): -17.5%
inhibition at 10 µg/mL ([1]; 120 h): -14.4%
inhibition at 100 µg/mL ([1]; 120 h): 13.2%
MIC80 [1]: > 100 µg/mL
activity at 1.5 µM (normal human melanocytes; Homo sapiens, Melanocyte, Table 2, addition amount 1.5 μM, control = 100%): 37.7 ± 0.8%
activity at 4 µM (normal human melanocytes; [3]): 16.8 ± 0.96%

c1ccc(C(c2ccccc2)(c2ccccc2)N2CCCC2)cc1 [Compound 6, 1-(triphenylmethyl)pyrrolidine]
growth inhibitory effect on Trichopyton mentagrophytes (in words) [1]: no growth inhibitory effect
MIC80 [1]: > 100 µg/mL
activity at 2 µM (normal human melanocytes; Homo sapiens, Melanocyte, Table 2, control = 100%): 32.6 ± 4.1%
activity at 4 µM (normal human melanocytes; [3]): 17.2 ± 0.8%

Cc1ccc(C(O)c2ccc(C)cc2)cc1 [Compound 14, [bis(4-methylphenyl)]methanol]
MIC80 Concentration [1, 2]: 100.0000 µg/mL (≈ 471 µM)
MIC80 [1, 2]: 100 µg/mL (≈ 471 µM)
activity at 25 µM (normal human melanocytes; Homo sapiens, Melanocyte, Table 2, addition amount 25 μM, control = 100%): 44.6 ± 5.6%
activity at 40 µM (normal human melanocytes; Homo sapiens, Melanocyte, Table 7, treatment concentration 40 μM, read-out: Amount of melanin): 37.9 ± 1.39%

c1ccc(C(c2ccccc2)(c2ccncc2)n2ccnc2)cc1 [Compound 40, 1-[(diphenylpyridyl)methyl]imidazole]
MIC80 [1, 2]: 10 µg/mL (≈ 32.1 µM)
activity at 20 µM (normal human melanocytes; [4]): 44.7 ± 4.2%

Cc1ccc(C(c2ccc(C)cc2)n2ccnc2)cc1 [Compound 41]
MIC80 [1, 2]: 5 µg/mL (≈ 19.1 µM)
activity at 15 µM (normal human melanocytes; [4]): 34.1 ± 2.58%

c1ccc(C(c2ccccc2)c2ccccc2)cc1 [Triphenylmethane]
growth inhibitory effect on Trichopyton mentagrophytes (in words) [1]: no growth inhibitory effect
MIC80 [1]: > 100 µg/mL
activity at 15 µM (normal human melanocytes; [4]): 32.2 ± 1.82%
activity at 10 µM (normal human melanocytes; Homo sapiens, Melanocyte, Table 3, addition amount 10 μM, control = 100%): 42.3 ± 1.4%

OC(c1ccccc1)(c1ccccc1)c1ccccc1 [Triphenylmethanol]
MIC80 Concentration [1, 2]: 100.0000 µg/mL (≈ 384 µM)
MIC80 [1, 2]: 100 µg/mL (≈ 384 µM)
activity at 7.5 µM (normal human melanocytes; Homo sapiens, Melanocyte, Table 3, addition amount 7.5 μM, control = 100%): 41.3 ± 2.8%
activity at 15 µM (normal human melanocytes; [4]): 31.6 ± 2.39%

NC(c1ccccc1)(c1ccccc1)c1ccccc1 [Triphenylmethylamine]
growth inhibitory effect on Trichopyton mentagrophytes (in words) [1]: no growth inhibitory effect
MIC80 [1, 2]: > 100 µg/mL
activity at 12.5 µM (normal human melanocytes; Homo sapiens, Melanocyte, Table 3, addition amount 12.5 μM, control = 100%): 57.3 ± 1.6%
activity at 20 µM (normal human melanocytes; [4]): 23 ± 2.41%
